The source of these data is article PMC6600574 (Molecules, 2019).

Data set [1] has as its system recombinant human UGT1A7, 1A10, and UGT1A8. Description: Glucuronidation by recombinant human UGTs. The format is in vitro ADME. The settings on record: incubation with recombinant human UGT1A7, 1A10 and UGT1A8.
Data set [2] deals with T1, CYP 2C19 (liver microsomes) (Homo sapiens, UniProt P33261).
T1 construct: from tissue; host or cells: human liver microsomes
The experiment in a line: Inhibition of hepatic microsome-catalyzed CYP oxidation. The format is in vitro ADME. Particulars: CYP 2C19, substrate TFD032, liver microsomes. The method, then: (§1) Incubations were carried out in a total volume of 100 µl of 100 mM Tris-HCl buffer (pH 7.4) in all black, flat-bottom Costar 96-well plates (Corning Incorporated, Corning, NY, USA). […] The samples were then preincubated at 37 °C for 10 min. The reactions were initiated by the addition of NADPH, and 0–10 µM 7-hydroxycoumarin was used as the standard. The fluorescent signal was measured with a Victor^2 1420 multilabel plate counter (PerkinElmer Lifesciences Wallac, Turku, Finland) with excitation and emission wavelengths of 405 and 460 nm, respectively. Fluorescence was monitored every 2 min for 40 min from where the concentration was calculated at the various time points. From these, oxidation rates (µM/min) and the relative remaining activity of the sample at different concentrations were calculated. The data were fit to sigmoidal dose-response curves with nonlinear regression, and IC50 values (the concentration at which the sample reduced the metabolism of the CYP substrate by 50%) were determined. […] This was analyzed using nonlinear equations in Graph Pad Prism, which produced IC50 values and its 95% confidence interval as the results.

Data set [3] concerns the target T2, CYP 2A6 (liver microsomes) (Homo sapiens, UniProt P11509).
T2 construct: from tissue; host or cells: human liver microsomes
T2 sequence (P11509 1-494): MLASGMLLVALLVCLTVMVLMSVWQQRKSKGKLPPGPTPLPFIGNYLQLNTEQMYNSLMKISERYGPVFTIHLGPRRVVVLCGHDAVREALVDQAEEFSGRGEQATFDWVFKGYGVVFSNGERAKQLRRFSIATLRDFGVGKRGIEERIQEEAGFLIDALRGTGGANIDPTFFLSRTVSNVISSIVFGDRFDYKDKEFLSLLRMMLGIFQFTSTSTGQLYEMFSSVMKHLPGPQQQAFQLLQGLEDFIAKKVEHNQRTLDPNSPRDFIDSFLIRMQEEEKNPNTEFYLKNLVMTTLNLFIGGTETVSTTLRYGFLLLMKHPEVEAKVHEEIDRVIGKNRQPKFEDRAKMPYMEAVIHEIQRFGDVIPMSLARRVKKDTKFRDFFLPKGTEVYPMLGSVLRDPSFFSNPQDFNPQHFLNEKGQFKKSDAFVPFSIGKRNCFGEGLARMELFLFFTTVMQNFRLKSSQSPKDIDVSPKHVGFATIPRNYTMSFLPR
The data set is described as above. The format is in vitro ADME. Particulars: CYP 2A6, substrate coumarin, read-out: Microsomal IC50 (µM) with 95% Confidence Intervals. The method, then: as §1

Data set [4] deals with T3, CYP 1A2 (liver microsomes) (Homo sapiens, UniProt P05177).
T3 construct: from tissue; host or cells: human liver microsomes
The description is as above. The format is in vitro ADME. The settings on record: CYP 1A2, substrate OCA349, liver microsomes; read-out: Microsomal IC50 (µM) with 95% Confidence Intervals. The method, then: as §1
(Microsomes from liver hold many membrane-bound enzymes, among them those of drug oxidation.)

Data set [5] deals with T4, CYP 2D6 (liver microsomes) (Homo sapiens, UniProt P10635).
T4 construct: from tissue; host or cells: human liver microsomes
The data set is described as above. The settings on record: CYP 2D6, substrate TFD023, liver microsomes; read-out: Microsomal IC50 (µM) with 95% Confidence Intervals. The format is in vitro ADME. The method, then:
as §1

Data set [6] deals with T5, CYP 3A4 (liver microsomes) (Homo sapiens, UniProt P08684).
T5 construct: from tissue; host or cells: human liver microsomes
Described as above. The format is in vitro ADME. The settings on record: CYP 3A4, substrate OCA369, liver microsomes; read-out: Microsomal IC50 (µM) with 95% Confidence Intervals. The method, then: as §1

Data set [7] in a line: Nitric oxide scavenging assay (nitroprusside, Griess reagent). Particulars: 10 mM nitroprusside, 90 min, read-out: NO IC50. The format is biochemical. The method, then:
Ethanol (10%) was used as a blank. Nitroprusside (50 μL) at a concentration of 10 mM was added to all the wells. The plates were incubated for 90 min at room temperature. After incubation, Griess reagent (100 μL) was added to all the wells, except for the color controls (negative controls) where instead distilled water was added. The absorbances were read at a wavelength of 546 nm using a BIO-TEK Power-Wave XS multiplate reader. From the absorbances an IC50 value was determined.
A general note: Nitrite, measured by Griess reagent, commonly stands in for NO production.

Data set [8] concerns CYP 1B1 (liver microsomes). The experiment in a line: Inhibition of hepatic microsome-catalyzed CYP oxidation. The settings on record: CYP 1B1, substrate TFD008_1, liver microsomes. The format is in vitro ADME, human. The method, then: as §1
On the set-up of data set [9]: method as in Koo et al. (2006) [16]. Particulars: ref Koo et al. (2006) [16]; read-out: DPPH radical scavenging EC50; cited from earlier work. Background: Loss of DPPH colour is used to gauge radical scavenging.
A further data set deals with T6, CYP 19A1 (aromatase) (Homo sapiens, UniProt P11511).
T6 construct: from tissue; host or cells: human placental microsomes
T6 sequence (P11511 1-503): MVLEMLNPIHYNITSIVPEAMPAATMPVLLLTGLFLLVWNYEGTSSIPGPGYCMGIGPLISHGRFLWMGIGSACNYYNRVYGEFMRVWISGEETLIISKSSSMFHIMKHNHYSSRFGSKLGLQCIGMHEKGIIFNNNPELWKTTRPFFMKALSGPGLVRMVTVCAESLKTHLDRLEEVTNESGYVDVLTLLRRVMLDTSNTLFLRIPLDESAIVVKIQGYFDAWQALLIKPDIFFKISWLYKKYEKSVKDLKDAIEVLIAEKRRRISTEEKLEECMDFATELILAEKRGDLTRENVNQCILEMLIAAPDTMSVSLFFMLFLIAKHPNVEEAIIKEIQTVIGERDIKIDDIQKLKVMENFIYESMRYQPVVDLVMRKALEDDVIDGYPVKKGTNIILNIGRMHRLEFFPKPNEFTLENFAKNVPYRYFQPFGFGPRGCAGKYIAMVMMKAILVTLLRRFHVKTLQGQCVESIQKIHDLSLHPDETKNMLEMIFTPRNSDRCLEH
Description: Aromatase inhibition assay, tritiated water release, placental microsomes. The format is in vitro ADME. The settings on record: CYP 19A1, substrate androstendione, verbascoside 4-500 µM. The method, then:
The relative remaining aromatase activity was calculated by measuring the tritiated water (^3H2O) formed from the aromatization of ^3H-Androst-4-ene,3,17-dione. […] Twenty percent NADPH regenerative system was added to initiate the reaction. Reactions were terminated by the addition of 33% trichloroacetic acid. The supernatant was investigated for tritiated water formed in a scintillation mixture (Optiphase Hisafe 2, Perkin Elmer) using a Wallac microbeta 1450 TriLux liquid scintillation and luminescence counter (PerkinElmer).

As usually defined, the IC50 is the point on the concentration scale where inhibition reaches its midpoint. The term EC50 denotes the concentration needed to bring the measured effect to its halfway point.

T1 sequence (P33261 whole entry): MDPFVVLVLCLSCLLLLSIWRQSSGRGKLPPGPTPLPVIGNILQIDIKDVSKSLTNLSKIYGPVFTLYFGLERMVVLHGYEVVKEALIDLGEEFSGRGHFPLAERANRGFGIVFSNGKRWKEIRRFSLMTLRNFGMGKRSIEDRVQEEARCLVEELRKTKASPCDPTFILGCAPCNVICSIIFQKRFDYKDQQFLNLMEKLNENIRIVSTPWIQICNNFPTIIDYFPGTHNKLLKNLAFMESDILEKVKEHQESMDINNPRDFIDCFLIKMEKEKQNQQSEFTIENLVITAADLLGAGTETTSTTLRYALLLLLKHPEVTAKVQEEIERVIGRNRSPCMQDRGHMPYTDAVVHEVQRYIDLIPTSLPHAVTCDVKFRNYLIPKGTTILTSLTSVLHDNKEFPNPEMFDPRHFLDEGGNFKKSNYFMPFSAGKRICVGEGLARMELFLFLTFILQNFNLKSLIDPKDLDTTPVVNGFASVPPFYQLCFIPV
T3 sequence (P05177 whole entry): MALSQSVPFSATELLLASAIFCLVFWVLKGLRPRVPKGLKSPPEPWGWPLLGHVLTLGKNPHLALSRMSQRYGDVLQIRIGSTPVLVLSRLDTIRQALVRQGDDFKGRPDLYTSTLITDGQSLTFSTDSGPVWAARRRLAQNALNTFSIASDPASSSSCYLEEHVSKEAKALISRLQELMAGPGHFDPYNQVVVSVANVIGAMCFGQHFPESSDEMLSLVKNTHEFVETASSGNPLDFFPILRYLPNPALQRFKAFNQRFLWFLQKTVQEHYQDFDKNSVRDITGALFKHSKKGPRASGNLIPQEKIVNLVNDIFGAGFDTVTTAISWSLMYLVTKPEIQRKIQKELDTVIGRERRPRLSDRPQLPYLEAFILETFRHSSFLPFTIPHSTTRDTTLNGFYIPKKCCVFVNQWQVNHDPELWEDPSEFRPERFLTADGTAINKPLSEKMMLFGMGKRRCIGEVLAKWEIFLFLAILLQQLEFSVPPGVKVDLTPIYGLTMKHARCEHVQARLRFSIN
T4 sequence (P10635 whole entry): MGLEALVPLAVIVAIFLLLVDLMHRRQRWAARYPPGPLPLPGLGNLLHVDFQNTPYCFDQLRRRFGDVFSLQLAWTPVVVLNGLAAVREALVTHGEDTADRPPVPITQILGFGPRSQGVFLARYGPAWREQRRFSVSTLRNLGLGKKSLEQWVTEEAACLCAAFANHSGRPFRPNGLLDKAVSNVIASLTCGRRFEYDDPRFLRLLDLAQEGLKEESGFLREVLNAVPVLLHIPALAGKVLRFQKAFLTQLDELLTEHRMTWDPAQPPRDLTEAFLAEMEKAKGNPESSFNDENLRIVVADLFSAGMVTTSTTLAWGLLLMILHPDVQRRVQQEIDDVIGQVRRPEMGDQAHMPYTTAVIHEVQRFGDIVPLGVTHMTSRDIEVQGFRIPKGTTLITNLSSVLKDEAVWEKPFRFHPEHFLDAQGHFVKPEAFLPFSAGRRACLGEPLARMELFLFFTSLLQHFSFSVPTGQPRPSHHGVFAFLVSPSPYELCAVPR
T5 sequence (P08684 whole entry): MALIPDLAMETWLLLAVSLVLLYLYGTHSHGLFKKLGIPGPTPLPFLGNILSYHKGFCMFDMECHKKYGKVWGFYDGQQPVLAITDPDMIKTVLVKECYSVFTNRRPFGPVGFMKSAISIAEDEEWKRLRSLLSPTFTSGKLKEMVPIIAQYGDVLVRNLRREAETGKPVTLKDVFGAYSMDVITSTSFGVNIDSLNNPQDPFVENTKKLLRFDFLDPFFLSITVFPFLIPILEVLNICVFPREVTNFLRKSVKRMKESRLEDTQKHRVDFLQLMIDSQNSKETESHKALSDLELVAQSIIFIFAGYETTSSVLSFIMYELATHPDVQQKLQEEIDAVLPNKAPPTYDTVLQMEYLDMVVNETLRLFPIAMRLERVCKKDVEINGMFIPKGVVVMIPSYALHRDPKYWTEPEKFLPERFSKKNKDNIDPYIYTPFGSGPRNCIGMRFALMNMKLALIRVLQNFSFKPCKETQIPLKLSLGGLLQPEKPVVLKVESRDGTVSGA

Take `C[C@@H]1O[C@@H](O[C@@H]2[C@@H](O)[C@H](OCCc3ccc(O)c(O)c3)O[C@H](CO)[C@H]2OC(=O)/C=C/c2ccc(O)c(O)c2)[C@H](O)[C@H](O)[C@H]1O` [Verbascoside]: the Metabolites formed result in data set [1] is “low levels of glucuronide metabolites”. Moreover, the “Microsomal IC50 (µM) with 95% Confidence Intervals” value in [2] is recorded as “Stimulation ^c”; in [2] (listed as verbascoside), “weak ability to stimulate”; in data set [8] it was “No inhibition ^b”; at CYP 19A1 (aromatase), “No inhibition”; on CYP 19A1 (aromatase) (listed as verbascoside) it was “did not inhibit”. Moreover, the IC50 in data set [3] amounted to 135 µM; in data set [4] it was 24 µM; in data set [5] it was 96 µM; in data set [6], 76 µM; in data set [7], 382 ± 4.15 µM. Further, in [9], the EC50 was 1.28 µM.
